We go through 35 compounds from the Kinase Knowledgebase extract (Sharma et al. 2016).

The target in test [1] is EGFR (UniProt P00533).
The target of test [2] is EGFR (UniProt P00533). This is another data set of the same source.
The target of a further test is EGFR (Hamster) (UniProt P00533). As to conditions: for IC50: er22.

Several values for one entry are separate records, joined by “and”; a condition that tells them apart may be missing. Equal values may be shown once.

Sequence of EGFR (Hamster) (P00533 whole entry, looked up): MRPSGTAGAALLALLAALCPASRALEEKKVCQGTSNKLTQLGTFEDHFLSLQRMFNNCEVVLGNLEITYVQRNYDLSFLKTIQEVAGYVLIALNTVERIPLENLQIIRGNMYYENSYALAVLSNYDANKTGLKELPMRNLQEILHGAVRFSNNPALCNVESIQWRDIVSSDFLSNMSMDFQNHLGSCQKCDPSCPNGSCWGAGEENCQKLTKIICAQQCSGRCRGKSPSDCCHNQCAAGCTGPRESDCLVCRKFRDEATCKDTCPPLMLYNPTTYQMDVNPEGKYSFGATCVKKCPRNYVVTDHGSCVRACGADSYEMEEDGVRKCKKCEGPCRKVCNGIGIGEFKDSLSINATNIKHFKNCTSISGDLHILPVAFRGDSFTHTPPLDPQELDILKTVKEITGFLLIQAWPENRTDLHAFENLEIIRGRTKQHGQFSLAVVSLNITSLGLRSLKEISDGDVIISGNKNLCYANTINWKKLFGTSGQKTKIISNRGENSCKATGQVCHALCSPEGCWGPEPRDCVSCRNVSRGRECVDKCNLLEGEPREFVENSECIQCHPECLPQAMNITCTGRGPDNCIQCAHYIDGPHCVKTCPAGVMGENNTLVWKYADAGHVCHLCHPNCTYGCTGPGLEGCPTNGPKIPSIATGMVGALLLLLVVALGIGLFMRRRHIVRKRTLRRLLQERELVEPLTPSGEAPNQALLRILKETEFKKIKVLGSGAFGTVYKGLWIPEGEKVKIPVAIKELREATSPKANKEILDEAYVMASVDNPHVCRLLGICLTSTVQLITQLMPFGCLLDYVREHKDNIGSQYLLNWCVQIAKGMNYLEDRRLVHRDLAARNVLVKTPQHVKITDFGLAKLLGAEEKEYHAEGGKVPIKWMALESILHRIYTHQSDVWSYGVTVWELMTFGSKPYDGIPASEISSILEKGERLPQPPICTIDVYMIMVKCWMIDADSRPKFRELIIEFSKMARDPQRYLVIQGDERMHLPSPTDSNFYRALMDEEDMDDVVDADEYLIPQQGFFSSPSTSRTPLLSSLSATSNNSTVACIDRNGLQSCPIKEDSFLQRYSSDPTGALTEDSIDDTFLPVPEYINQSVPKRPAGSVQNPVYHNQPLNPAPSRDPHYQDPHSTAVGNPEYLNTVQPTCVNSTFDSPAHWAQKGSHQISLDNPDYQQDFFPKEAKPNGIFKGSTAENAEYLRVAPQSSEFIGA
Sequence of EGFR (P00533 whole entry, looked up): as above

What is called IC50 is the concentration that gives 50% inhibition. As for `CC(C)(C)CC(C)(C)NC(=O)c1cc(NCc2cc(O)ccc2O)ccc1O`, the IC50 at EGFR [1] was found to be 0.22 µM; on EGFR [2] it was 0.3 µM; with EGFR (Hamster) it was 9 µM.

Take `O=C(CCc1ccccc1)c1cc(NCc2cc(O)ccc2O)ccc1O`: the values for the IC50 at EGFR [1] and with EGFR (Hamster) were 0.16 µM and 6.5 µM, respectively.

As to `O=C(c1ccccc1)c1cccc(NCc2cc(O)ccc2O)c1`, the IC50 on EGFR [1] worked out at 0.8 µM; in the test with EGFR (Hamster), 5 µM.

For the compound `CC(COCc1cc(NCc2cc(O)ccc2O)ccc1O)CC(C)(C)C` (stereo not given), the results for the IC50 against EGFR [1] and with EGFR (Hamster) were 10 µM and 2 µM, respectively.

For the compound `Oc1ccc(O)c(CNc2ccc(O)c(C(O)c3ccccc3)c2)c1` (stereo not given), the IC50 came to 1.3 µM against EGFR [1] and 8.2 µM with EGFR (Hamster).

As for `CC(C)c1ccc(NC(=O)c2cc(NCc3cc(O)ccc3O)ccc2O)cc1`, the IC50 against EGFR [1] is 0.15 µM; in the test with EGFR (Hamster), greater than 10 µM.

Regarding `O=C(NCc1ccccc1)c1cc(NCc2cc(O)ccc2O)ccc1O`, the IC50 against EGFR [1] is 0.02 µM and 0.038 µM; against EGFR [2] it was 0.04 µM; in the test with EGFR (Hamster), 6 µM and 7 µM.

`COC(=O)[C@H](Cc1ccccc1)NC(=O)c1cc(NCc2cc(O)ccc2O)ccc1O`: the figures for the IC50 on EGFR [1] and with EGFR (Hamster) were 0.54 µM and 10 µM, respectively.

For `O=C(Cc1ccccc1)c1cc(NCc2cc(O)ccc2O)ccc1O`, the IC50 on EGFR [1] is 0.06 µM; with EGFR (Hamster), 10 µM.

As for `CC(NC(=O)c1cc(NCc2cc(O)ccc2O)ccc1O)c1ccccc1` (stereo not given), the IC50 at EGFR [1] is 0.07 µM; with EGFR (Hamster), 10 µM.

Consider `CC(CNC(=O)c1cc(NCc2cc(O)ccc2O)ccc1O)CC(C)(C)C` (stereo not given), for which the IC50 on EGFR [1] was found to be 0.8 µM; in the test with EGFR (Hamster), 6 µM.

Usually inhibition stands for the change of the read-out against control, counted positive when it falls. High values mean a response far below the control, low ones a response near the control. On EGFR [1] (concentration not given here), `CC(CC(=O)c1cccc(NCc2cc(O)ccc2O)c1O)CC(C)(C)C` (stereo not given) returned an inhibition of 24%.

Consider `O=C(c1ccccc1)c1cc(NCc2cc(O)ccc2O)ccc1O`, for which the IC50 against EGFR [1] amounted to 0.3 µM; with EGFR (Hamster), 10 µM.

`O=C(OCCCc1ccccc1)c1cc(NCc2cc(O)ccc2O)ccc1O` had a 50% inhibitory concentration (IC50) in the test with EGFR (Hamster) of 2.25 µM.

For the compound `Oc1ccc(O)c(CNc2ccc(O)c(COc3ccccc3)c2)c1`, the IC50 at EGFR [1] is 0.7 µM; with EGFR (Hamster), greater than 10 µM.

For `O=C(Cc1ccccc1)c1cccc(NCc2cc(O)ccc2O)c1O`, the IC50 is 2 µM against EGFR [1] and 4.8 µM in the test with EGFR (Hamster).

Turning to `CC(O)c1cccc(NCc2cc(O)ccc2O)c1` (stereo not given), the IC50 against EGFR [1] is 1.6 µM; with EGFR (Hamster), greater than 20 µM.

With `CN(Cc1ccccc1)C(=O)c1cc(NCc2cc(O)ccc2O)ccc1O`, the IC50 against EGFR [1] is 0.55 µM; with EGFR (Hamster), greater than 10 µM.

As to `CC(=O)c1cc(NCc2cc(O)ccc2O)ccc1O`, the values for the IC50 at EGFR [1] and in the test with EGFR (Hamster) were 0.34 µM and greater than 10 µM, respectively.

Consider `OCc1cc(NCc2cc(O)ccc2O)ccc1O`, for which the IC50 is 2 µM against EGFR [1] and 12 µM with EGFR (Hamster).

Take `CC(COCc1cccc(NCc2cc(O)ccc2O)c1)CC(C)(C)C` (stereo not given): the IC50 at EGFR [1] is greater than 10 µM; in the test with EGFR (Hamster), 2.5 µM.

Regarding `O=C(Nc1ccccc1)c1cc(NCc2cc(O)ccc2O)ccc1O`, the IC50 is 0.02 µM at EGFR [1], 0.09 µM on EGFR [2] and 10 µM with EGFR (Hamster).

As to `Oc1ccc(O)c(CNc2cccc(C(O)c3ccccc3)c2)c1` (stereo not given), the IC50 is 1.8 µM against EGFR [1] and 20 µM in the test with EGFR (Hamster).

In the case of `Oc1ccc(O)c(CNc2ccc(O)c(COCc3ccccc3)c2)c1`, the IC50 at EGFR [1] is 0.8 µM; with EGFR (Hamster), greater than 10 µM.

In the case of `CC(CSCc1cc(NCc2cc(O)ccc2O)ccc1O)CC(C)(C)C` (stereo not given), the results for the 50% inhibitory concentration (IC50) against EGFR [1] and in the test with EGFR (Hamster) were 1.9 µM and 5 µM, respectively.

Turning to `Oc1ccc(O)c(CNc2cccc(COCc3ccccc3)c2)c1`, the figures for the IC50 against EGFR [1] and with EGFR (Hamster) were 0.95 µM and 2.5 µM, respectively.

`CC(=O)c1cccc(NCc2cc(O)ccc2O)c1`: the IC50 came to 1.3 µM against EGFR [1] and 12 µM with EGFR (Hamster).

With `COc1ccc(NCc2cc(O)ccc2O)cc1COCC(C)CC(C)(C)C` (stereo not given), the values for the IC50 against EGFR [1] and with EGFR (Hamster) were 20 µM and 0.8 µM, respectively.

In turn, `CCCCCCCCCCCCCCCCC(=O)Oc1ccc(NCc2cc(O)ccc2O)cc1C(=O)NCc1ccccc1` returned an IC50 against EGFR [1] of 1.5 µM. The inhibition with EGFR (Hamster) (er22, dose or concentration not given here) amounted to 20%.

Turning to `N#Cc1cc(NCc2cc(O)ccc2O)ccc1O`, the 50% inhibitory concentration (IC50) is 0.19 µM against EGFR [1] and greater than 10 µM with EGFR (Hamster).

Take `CC(COC(=O)c1cc(NCc2cc(O)ccc2O)ccc1O)CC(C)(C)C` (stereo not given): the IC50 on EGFR [2] is no less than 10 µM.

`CC(CC(=O)c1cc(NCc2cc(O)ccc2O)ccc1O)CC(C)(C)C` (stereo not given): the values for the IC50 against EGFR [1] and in the test with EGFR (Hamster) were 0.37 µM and 2 µM, respectively.

On to `CC(C)c1ccccc1NC(=O)c1cc(NCc2cc(O)ccc2O)ccc1O`, for which the values for the half-maximal inhibitory concentration (IC50) at EGFR [1] and with EGFR (Hamster) were 0.12 µM and greater than 10 µM, respectively.

Regarding `Oc1ccc(O)c(CNc2ccc(O)c(C(=S)NCc3ccccc3)c2)c1`, the IC50 on EGFR [1] is 0.15 µM; with EGFR (Hamster), greater than 5 µM.

`O=C(CCc1ccccc1)c1c(O)cccc1NCc1cc(O)ccc1O`: the IC50 on EGFR [1] turned out to be 5 µM; in the test with EGFR (Hamster), 4 µM.
